This is an account of results in paper PMC5923171, “Novel Zinc-Attenuating Compounds as Potent Broad-Spectrum Antifungal Agents with In Vitro and In Vivo Efficacy” (Antimicrobial Agents and Chemotherapy, 2018).

Each structure is given as a SMILES string. ≈ marks a conversion by molar mass, not a printed value.

The conditions of test [1]: cited from earlier work.
Test [2] concerns A. fumigatus. The conditions noted are these: combination with amphotericin B lipid complex (ABLC), compared with either agent alone; cited from earlier work.
The test system of test [3] is invasive pulmonary aspergillosis. Also on record: method as in PMID 26438863. The conditions noted are these: after 7 days, compared to vehicle treatment; cited from earlier work.
Test [4] deals with A. fumigatus. Also on record: method as in PMID 27401578. The conditions noted are these: cited from earlier work.
In test [5] the test system is Mucor indicus ATCC MYA-4678. Nature of the test: Antifungal susceptibility testing (MIC). The format is cell-based. The conditions noted are these: no visible growth, 48 to 72 h, 34°C. The protocol: (§1) Antifungal susceptibility testing was carried out as described previously ([38], [39]), with a few modifications. Briefly, for each yeast or mold growth inhibition assay, frozen stocks of yeast cells or spores were diluted to a final concentration of 0.5 × 10^5 to 2.5 × 10^5 CFU/ml in sterile water. ZAC989, ZAC307, and ZAC623 were dissolved in DMSO to 10 mM stocks from which half-log serial dilutions were prepared. Growth assays were subsequently performed by pipetting 3 μl of compound dissolved in DMSO (giving a final concentration of 1.5% DMSO), 100 μl of cell-spore suspension, and 97 μl of 2× RPMI medium (20.8 g/liter of RPMI 1640 medium, 69.06 g/liter of morpholinepropanesulfonic acid [MOPS], 36 g/liter of glucose) into a microtiter plate that was incubated for 24 h (yeasts) or 48 to 72 h (molds) at 34°C. Fungal growth was determined spectrophotometrically by optical density reading of each well at a wavelength of 492 nm on a Victor X5 (Perkin-Elmer) plate reader. […] Standard errors between repeated experiments were generally below 5%. The growth effect of exogenous addition of various divalent metals was evaluated by performing the antifungal susceptibility assay in the presence of 5 μM ZAC989 or ZAC307 and with increasing concentrations (0.003 to 50 μM) of ZnSO4, CuSO4, (NH4)2Fe(SO4)2, MgCl2, and CaCl2.

Test [6] concerns Aspergillus flavus ATCC 15547. Nature of the test: Antifungal susceptibility testing (MIC). The class given is cell-based. The conditions noted are these: ATCC15547, no visible growth, 48 to 72 h, 34°C. The protocol:
as §1

The target in test [7] is fungal plasma membrane H^+-ATPase (Saccharomyces cerevisiae, UniProt P05030). As to the kind of experiment: H+-ATPase-inhibitory activity. The class given is biochemical.
Test [8] has as its system wild-type A. fumigatus strain (AF14). Nature of the test: Growth capacity in sRPMI zinc-limiting medium, 24-well plates. The class given is cell-based, Aspergillus fumigatus. The conditions noted are these: 75 μM compound, 44 h, 37°C. The protocol:
The ZACs inhibited these molds and mucorales isolates in a range from 0.4 μg/ml to 5.4 μg/ml (Table 3). To assess the capacity of the ZACs to inhibit A. fumigatus growth in the presence of zinc, 1-ml aliquots of sRPMI zinc-limiting medium (RPMI 1640 medium [R8755; Sigma] supplemented with 10 μM FeSO4·7H2O, 1 μM CuSO4·5H2O, and 1 μM MnCl2·H2O) or this medium supplemented with 2, 5, or 50 μM zinc were inoculated with 10^5 conidia of a wild-type A. fumigatus strain (AF14), dispensed in 24-well culture plates, and incubated in the presence of either ZAC307 or ZAC989 at a final concentration 21 μg/ml or 27 μg/ml (equivalent to 75 μM), respectively (Fig. 5A).
Growth capacity experiments with A. fumigatus strains AF14, AF54, AF48, AF732, and AF731 were performed in 24-well flat-bottomed tissue culture plates (35-3047; Falcon). A stock solution of 10 mM TPEN (P4413; Sigma) was prepared in pure ethanol. For these experiments, 5 mM stock solutions of ZAC307 and ZAC989 were prepared by dissolving each compound in 80% (vol/vol) ethanol. A 0.5 M stock solution of Na2EDTA·2H2O (1.08421.1000; Merck) was prepared in sterile water. […] To quantitate mycelial growth, each plate was scanned in an Agfa SnapScan 1236s scanner, and the intensity of the wells was quantified using the open-source image processing program Image J2. The data were represented and analyzed with Prism software 7.0.

The next test has as its system C. glabrata Cg003. As to the kind of experiment: Antifungal susceptibility testing (MIC). The class given is cell-based, Candida glabrata. The conditions noted are these: Nakaseomyces glabratus, CG003, 24 h. The protocol:
as §1

The test system of the next test is C. glabrata ATCC 90030. Nature of the test: Antifungal susceptibility testing (MIC). The format is cell-based, Candida glabrata. The conditions noted are these: Nakaseomyces glabratus, ATCC90030; at least 50% growth inhibition, RPMI, 24 h, 34°C. As for the experimental part:
as §1

For test [9], the system named is A. fumigatus AF721 (ΔzrfA ΔzrfB ΔzrfC). Nature of the test: Growth capacity in sRPMI medium, 24-well plates. The format is cell-based, Aspergillus fumigatus.

Sequence of fungal plasma membrane H^+-ATPase (P05030 whole entry): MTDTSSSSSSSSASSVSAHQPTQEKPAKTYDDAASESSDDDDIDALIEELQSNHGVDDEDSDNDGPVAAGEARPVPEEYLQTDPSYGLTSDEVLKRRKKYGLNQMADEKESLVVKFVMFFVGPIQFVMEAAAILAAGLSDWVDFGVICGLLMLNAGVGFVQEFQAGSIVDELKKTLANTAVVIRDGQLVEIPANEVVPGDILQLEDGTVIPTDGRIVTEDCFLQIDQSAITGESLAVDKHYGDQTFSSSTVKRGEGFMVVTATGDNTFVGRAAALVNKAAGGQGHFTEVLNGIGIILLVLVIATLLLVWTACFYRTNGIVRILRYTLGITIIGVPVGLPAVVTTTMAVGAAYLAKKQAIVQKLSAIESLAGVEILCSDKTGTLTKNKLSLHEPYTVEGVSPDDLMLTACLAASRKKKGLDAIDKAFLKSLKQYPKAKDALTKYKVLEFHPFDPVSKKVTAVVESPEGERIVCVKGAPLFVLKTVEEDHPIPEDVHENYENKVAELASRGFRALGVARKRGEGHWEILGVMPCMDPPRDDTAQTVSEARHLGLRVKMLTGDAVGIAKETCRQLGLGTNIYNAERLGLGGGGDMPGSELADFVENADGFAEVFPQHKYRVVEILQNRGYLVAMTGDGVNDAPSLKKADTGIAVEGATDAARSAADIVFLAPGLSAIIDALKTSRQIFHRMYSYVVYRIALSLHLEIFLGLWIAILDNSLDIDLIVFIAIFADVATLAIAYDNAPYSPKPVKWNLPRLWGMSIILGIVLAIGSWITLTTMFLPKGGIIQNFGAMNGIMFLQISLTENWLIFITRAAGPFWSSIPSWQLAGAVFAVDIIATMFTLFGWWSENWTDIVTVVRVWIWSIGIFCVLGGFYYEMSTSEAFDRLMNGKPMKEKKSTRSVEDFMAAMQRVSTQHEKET

Turning to `O=C(O)CN(CCN(CC(=O)O)CC(=O)O)CC(=O)O` [EDTA], the “zinc chelation (in words)” value in [1] is given as “very potent zinc chelators”. For the same molecule, the “survival times and tissue burden” value with A. fumigatus [2] was “improved survival times and a lower tissue burden of A. fumigatus”.
With `c1ccc(CN(CCN(Cc2ccccn2)Cc2ccccn2)Cc2ccccn2)nc1` [TPEN, N,N,N’,N’-tetrakis(2-pyridylmethyl)-ethylenediamine], in test [3], the survival result was “significantly increase survival”. In addition, in the test on A. fumigatus [4] (in combination with caspofungin, compared to either drug alone, murine models of invasive aspergillosis), the survival times result was “significantly increased survival times”. Further, in the test with A. fumigatus [4] (monotherapy), the “survival and fungal burden” value is “significant improvements in survival with concomitant reduction in fungal burden”. For the same molecule, the “zinc chelation (in words)” value in [1] was “very potent zinc chelators”.
With `CN(C)c1cc(-n2nc(-c3ccccc3)cc2O)ncn1` [ZAC307, 2-[6-(dimethylamino)pyrimidin-4-yl]-5-phenyl-pyrazol-3-ol], the MIC in test [5] was 1.3 µg/mL (≈ 4.62 µM); in test [6] it was 1.3 µg/mL (≈ 4.62 µM); against C. glabrata Cg003 it was 0.2 µg/mL (≈ 0.711 µM); in the test on C. glabrata ATCC 90030, 0.2 µg/mL (≈ 0.711 µM). For the same molecule, in test [7], the “H^+-ATPase-inhibitory activity” value is recorded as “lacked H^+-ATPase-inhibitory activity”. Moreover, the “reduction of growth capacity, 2 μM zinc plus compound compared to 50 μM zinc” value in [8] came out at 2.9 fold.
`Cc1cc(O)n(-c2cc(N3CC[C@H](Oc4cnccc4C#N)C3)ncn2)n1` [ZAC989, 3-[(3S)-1-[6-(5-hydroxy-3-methyl-pyrazol-1-yl)pyrimidin-4-yl]pyrrolidin-3-yl]oxy-pyridine-4-carbonitrile]: the MIC in [5] was 1.1 µg/mL (≈ 3.03 µM); in test [6], 5.1 µg/mL (≈ 14 µM); against C. glabrata Cg003 it was 0.6 µg/mL (≈ 1.65 µM); against C. glabrata ATCC 90030, 0.9 µg/mL (≈ 2.48 µM). The “growth capacity in the presence of 50 μM zinc (in words)” value in [9] was “noticeably inhibited the growth capacity of AF721”. Moreover, the “H^+-ATPase-inhibitory activity” value in [7] was “lacked H^+-ATPase-inhibitory activity”. In addition, in test [8], the “reduction of growth capacity, 2 μM zinc plus compound compared to 50 μM zinc” value came to 3.9 fold.

One may read the MIC as the least concentration at which growth counts as inhibited.
